Test results taken from patent publication EP0876144B1, “THERAPEUTIC ANTI-ASTHMA AGENTS CONTAINING EBSELEN” (A. Nattermann & Cie. GmbH, priority 1996, dated 1997).
Entries after “also recorded” stand apart in the source; their conditions may differ.

Columns and labels:
[1] = tested on: Meerschweinchen, die ein Antigen induziertes Asthma besitzen; assay: antigen (ovalbumin)-induced asthma in conscious, spontaneously breathing guinea pigs; lung function (sGaw) by body plethysmograph; assay type: in vivo, Hartley Meerschweinchen; details: for Bereiche der Unterdrückung der unmittelbaren asthmatischen Reaktionen: comparison of Ebselen group (5 mg/kg i.p.) with Dexamethason group (1 mg/kg i.p., 4 days)
Experimental: Die Wirksamkeiten von Ebselen wurden unter Verwendung von Meerschweinchen, die ein Antigen induziertes Asthma besitzen, durch Überprüfung der Lungenfunktionen unter Bewußtsein und spontaner Atmung getestet.
Jedes der weiblichen Hartley Meerschweinchen (SLC) (4 Wochen alt, Körpergewicht etwa 250 bis 300 g) wurden vorbehandelt mit Cyclophosmid (2 mg/kg). Nach zwei Tagen wurden intraperitoneal Ovalbumin (OA, 1 mg) und Aluminiumgel (1 g) injiziert. Drei Wochen später wurden wiederum OA (0,1 mg) und Aluminiumgel (1 g) intraperitoneal injiziert. Die so behandelten Meerschweinchen wurden als sensibilisierte Tiere benutzt. Zu diesem Testzeitpunkt waren die Meerschweinchen elf Wochen alt und hatten ein Körpergewicht von 450 bis 580 g.
Körper-Pressmograph, Drucktyp • Pulmotacograph (TP-601G, Nippon Kodensha) • Differentialmeßwandler (T-601, Nippon Kodensha) • Gasflußwiderstandsrohr (Lilly type, Nippon Kodensha) • Oszilloskop (DS-9121, Iwasaki Tsushinki) • Computer (Macintosh Centris 660 AV, Apple) • Software (zur Analyse der Atmung basierend auf LabView für Macintosh 3.01) • Zerstäuber (NE-U10, Tateishi Denki)
Dexamethason (1 mg/kg) wurde in 100 % DMSO (1 ml) gelöst. Diese Lösung wurde während vier aufeinander folgende Tage intraperitoneal injiziert. Die letzte intraperitoneale Injektion wurde 24 Stunden vor der Induzierung der Antigene durchgeführt.
Gruppe der mit Ebselen vorbehandelten Meerschweinchen Ebselen (5 mg/kg) wurde in 100 % DMSO (1 ml) gelöst. Diese Lösung wurde intraperitoneal 30 Minuten vor der Induzierung der Antigene injiziert.
100 % DMSO (1 ml) wurde intraperitoneal 30 Minuten vor der Induzierung der Antigene injiziert.
OA (40 mg) wurde in einer physiologischen Salzlösung (4 mg/ml) gelöst. Diese Lösung wurde 2 Minuten lang unter Verwendung eines Ultraschallzerstäubers inhaliert.
In Übereinstimmung mit dem Verfahren von Agrawal (Agrawal, K. P.; Specific Airway Conductance in Guinea Pigs: "Normal Values and Histamine Induced Fall", Respiratory Physiology 43:23, 1981) wurde jedes Meerschweinchen auf einem Körper-Pressmograph, Drucktyp, fixiert und die prozentuale Variation des spezifischen Luftweg-Leitwertes (sGaw) wurde gemessen. Der Luftfluß durch die Nase und die Änderung des Innendruckes der Box wurden aufgezeichnet. Die entsprechenden Wellenformen' wurden digital bei 1.024 Hz gesammelt und die Punkte vom Ende des Ausatmens bis zum Beginn des Einatmens wurden als rückläufige Linie aufgezeichnet. Unter Verwendung der Neigung (tan) der rückläufigen Linie wurde der sGaw erhalten. Der sGaw-Wert wurde vor der Induzierung der Antigene gemessen. Nachdem eine physiologische Salzlösung für zwei Minuten inhaliert wurde, wurde der sGaw nochmals gemessen, um sicherzustellen, daß sich keine Daten geändert hatten. […]

[2] = acute toxicity test (LD50) in mice; details: mouse, in vivo, Maus
Excerpt: (§1) Darüber hinaus konnte gefunden werden, daß Ebselen sehr sicher ist, wie dies durch die nachfolgenden und in der Tabelle 1 wiedergegebenen LD50-Werte bewiesen wird, wobei diese Werte das Ergebnis eines Toxizitätstests unter Verwendung von Mäusen und Ratten, denen diese Verbindungen oral oder intraperitoneal verabreicht wurden, darstellen. Selbst dann, wenn diese Verbindungen in hohen Dosen verabreicht werden, zeigen sie keine Nebeneffekte, die ernsthafte Probleme verursachen. Tabelle 1

[3] = acute toxicity test (LD50) in rats; details: rat, in vivo, Ratte
Excerpt: as §1

Lipoxygenase = details: Peter Kuhl et al, Prostaglandins, 31 (1986), 1029-1048; cited from earlier work

Row | Compound | Bereiche der Unterdrückung der unmittelbaren asthmatischen Reaktionen [1] | LD50 ([2]; ip) [mg/kg] | LD50 ([2]; po) [mg/kg] | Unterdrückung der unmittelbaren asthmatischen Reaktionen (sGaw) ([1]; Ebselen 5 mg/kg i.p. 30 min before antigen challenge, compared with control group (DMSO)) | Unterdrückung der späten asthmatischen Reaktionen (sGaw) ([1]; Ebselen 5 mg/kg i.p. 30 min before antigen challenge, compared with control group (late reactions at 180 to 420 min in controls)) | LD50 ([3]; ip) [mg/kg] | LD50 ([3]; po) [mg/kg] | Lipoxygenase inhibierende Wirkung (Lipoxygenase)
1 | C[C@@H]1C[C@H]2[C@@H]3CCC4=CC(=O)C=C[C@]4(C)[C@@]3(F)[C@@H](O)C[C@]2(C)[C@@]1(O)C(=O)CO [Dexamethason, reference compound] | überwiegend gleich |  |  |  |  |  |  | 
2 | O=c1c2ccccc2[se]n1-c1ccccc1 [Ebselen, 2-Phenyl-1,2-Benzoisoselenazole-3(2H)-one] | überwiegend gleich | 740 | > 6810 | wirkungsvoller unterdrückt | wirkungsvoller unterdrückt; also recorded: erheblich und vollständig unterdrückt | 580 | > 6810 | deutliche Lipoxygenase inhibierende Wirkung
